Assays:
[1] = tested on: HL-60 (TB); experiment: SRB anticancer assay, leukemia; format: cell-based, human; set-up: Log10GI50: unit not given here; conditions: for Log10GI50: HL-60(TB), present compounds; for GI50: Homo sapiens, HL-60, 48 h
[2] = tested on: K-562; experiment: SRB anticancer assay, leukemia; format: cell-based, human; set-up: Log10GI50: unit not given here; conditions: for GI50: Homo sapiens, K562, K-562, 48 h; for Log10GI50: K-562, present compounds
[3] = tested on: SR; experiment: SRB anticancer assay, leukemia; format: cell-based, human; conditions: Homo sapiens, 48 h
[4] = tested on: NCI-H23; experiment: SRB anticancer assay, non-small lung; format: cell-based, human; conditions: for GI50: Homo sapiens, NCI-H23, 48 h; for Log10GI50: NCI-H23, present compounds
[5] = tested on: NCI-H322M; experiment: SRB anticancer assay, non-small lung; format: cell-based, human; conditions: Homo sapiens, 48 h
[6] = tested on: NCI-H460; experiment: SRB anticancer assay, non-small lung; format: cell-based, human; conditions: Homo sapiens, NCI-H460, 48 h
[7] = tested on: HCT-116; experiment: SRB anticancer assay, colon; format: cell-based, human; conditions: Homo sapiens, HCT-116, 48 h
[8] = tested on: SF-268; experiment: SRB anticancer assay, CNS; format: cell-based, human; set-up: Log10GI50: unit not given here; conditions: for GI50: Homo sapiens, SF-268, 48 h; for Log10GI50: SF-268, present compounds
[9] = tested on: SF-295; experiment: SRB anticancer assay, CNS; format: cell-based, human; set-up: Log10GI50: unit not given here; conditions: for GI50: Homo sapiens, SF-295, 48 h; for Log10GI50: SF-295, present compounds
[10] = tested on: SNB-75; experiment: SRB anticancer assay, CNS; format: cell-based, human; set-up: Log10GI50: unit not given here; conditions: for GI50: Homo sapiens, SNB-75, 48 h; for Log10GI50: SNB-75, present compounds
[11] = tested on: IGROV1; experiment: SRB anticancer assay, ovarian; format: cell-based, human; conditions: Homo sapiens, IGROV-1; IGROV1, 48 h
[12] = tested on: OVCAR-3; experiment: SRB anticancer assay, ovarian; format: cell-based, human; set-up: Log10GI50: unit not given here; conditions: for GI50: Homo sapiens, OVCAR-3, 48 h; for Log10GI50: OVCAR-3, present compounds
[13] = tested on: OVCAR-5; experiment: SRB anticancer assay, ovarian; format: cell-based, human; conditions: Homo sapiens, OVCAR-5, 48 h
[14] = tested on: 786-0; experiment: SRB anticancer assay, renal; format: cell-based, human; conditions: for Log10GI50: 786-0, present compounds; for GI50: Homo sapiens, 786-0, 48 h
[15] = tested on: A498; experiment: SRB anticancer assay, renal; format: cell-based, human; set-up: Log10GI50: unit not given here; conditions: for Log10GI50: A498, present compounds; for GI50: Homo sapiens, A498, 48 h
[16] = tested on: SN12C; experiment: SRB anticancer assay, renal; format: cell-based, human; set-up: Log10GI50: unit not given here; conditions: for GI50: Homo sapiens, 48 h; for Log10GI50: present compounds
[17] = tested on: TK-10; experiment: SRB anticancer assay, renal; format: cell-based, human; conditions: Homo sapiens, TK-10, 48 h
[18] = tested on: UO-31; experiment: SRB anticancer assay, renal; format: cell-based, human; set-up: Log10GI50: unit not given here; conditions: for GI50: Homo sapiens, UO-31, 48 h; for Log10GI50: UO-31, present compounds
[19] = tested on: RXF 393; experiment: SRB anticancer assay, renal; format: cell-based, human; set-up: Log10GI50: unit not given here; conditions: for GI50: Homo sapiens, RXF 393, 48 h; for Log10GI50: RXF 393, present compounds
[20] = tested on: PC-3; experiment: SRB anticancer assay, prostate; format: cell-based, human; set-up: Log10GI50: unit not given here; conditions: for GI50: Homo sapiens, PC-3, 48 h; for Log10GI50: PC-3, present compounds
[21] = tested on: MCF7; experiment: SRB anticancer assay, breast; format: cell-based, human; conditions: Homo sapiens, MCF7, 48 h
[22] = tested on: HS 578T; experiment: SRB anticancer assay, breast; format: cell-based, human; set-up: Log10GI50: unit not given here; conditions: for GI50: Homo sapiens, 48 h
[23] = tested on: BT-549; experiment: SRB anticancer assay, breast; format: cell-based, human; set-up: Log10GI50: unit not given here; conditions: for Log10GI50: BT-549, present compounds; for GI50: Homo sapiens, BT-549, 48 h
[24] = tested on: T-47D; experiment: SRB anticancer assay, breast; format: cell-based; conditions: Homo sapiens, T47D, 48 h
[25] = tested on: LOX IMVI; experiment: SRB anticancer assay, melanoma; format: cell-based, human; set-up: Log10GI50: unit not given here; conditions: for GI50: Homo sapiens, 48 h; for Log10GI50: present compounds
[26] = tested on: MALME-3M; experiment: SRB anticancer assay, melanoma; format: cell-based, human; set-up: Log10GI50: unit not given here; conditions: for GI50: Homo sapiens, Malme-3M, 48 h; for Log10GI50: MALME-3M, present compounds
[27] = tested on: SK-MEL-2; experiment: SRB anticancer assay, melanoma; format: cell-based, human; conditions: for GI50: Homo sapiens, SK-MEL-2, 48 h; for Log10GI50: SK-MEL-2, present compounds
[28] = tested on: SK-MEL-28; experiment: SRB anticancer assay, melanoma; format: cell-based, human; set-up: Log10GI50: unit not given here; conditions: for GI50: Homo sapiens, SK-MEL-28, 48 h; for Log10GI50: SK-MEL-28, present compounds
[29] = tested on: SK-MEL-5; experiment: SRB anticancer assay, melanoma; format: cell-based, human; conditions: Homo sapiens, SK-MEL-5, 48 h
[30] = tested on: UACC-62; experiment: SRB anticancer assay, melanoma; format: cell-based, human; conditions: for GI50: Homo sapiens, UACC-62, 48 h; for Log10GI50: UACC-62, present compounds
[31] = tested on: K562 (Leukemia) cells; experiment: Cell cycle distribution by flow cytometry; format: cell-based
Method in brief: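 Compound-treated K562 cells analysed for cell-cycle distribution by flow cytometry; values given as % of cells.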

[32] = tested on: MCF-7 (Breast carcinoma) cells; experiment: Cell cycle distribution by flow cytometry (FACS); format: cell-based; conditions: MCF-7 cells, 2 μM, 24h
Method in brief: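 MCF-7 cells treated with compound at 2 μM for 24h, DMSO (0.25%) as control. Cell cycle distribution read by flow cytometry.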

## COc1cc(-c2cncn2-c2ccc(-c3nc4ccc(F)cc4s3)cc2)ccc1F [Compound 4c, 6-Fluoro-2-(4-(5-(4-fluoro-3-methoxyphenyl)-1H-imidazol-1-yl)phenyl)benzo[d]thiazole]
[1]
  Log10GI50: −5.60
  GI50: 2.5 µM
[2]
  GI50: 3.93 µM
  Log10GI50: −5.41
[3]
  GI50: 4.99 µM
[4]
  GI50: 8.25 µM
  Log10GI50: −5.08 log10(M)
[5]
  GI50: 36.3 µM
[6]
  GI50: 5.7 µM
[7]
  GI50: 4.36 µM
[8]
  GI50: 12.7 µM
  Log10GI50: −4.51
[9]
  GI50: 75.9 µM
  Log10GI50: −4.90
[10]
  GI50: 12.6 µM
  Log10GI50: −4.69
[11]
  GI50: 15.4 µM
[12]
  GI50: 5.71 µM
  Log10GI50: −5.24
[13]
  GI50: > 100 µM
[14]
  Log10GI50: −4.44 log10 M
  GI50: 36.1 µM
[15]
  Log10GI50: −7.36
  GI50: 0.0432 µM
[16]
  GI50: 31.9 µM
  Log10GI50: −4.50
[17]
  GI50: 38.8 µM
[18]
  GI50: 16.5 µM
  Log10GI50: −4.78
[19]
  GI50: 13.5 µM
  Log10GI50: −4.87
[20]
  GI50: 3.47 µM
  Log10GI50: −5.46
[21]
  GI50: 23.5 µM
[22]
  GI50: 11.5 µM
[23]
  Log10GI50: −4.94
  GI50: 7.98 µM
[24]
  GI50: 11.1 µM
[25]
  GI50: 35.9 µM
  Log10GI50: −4.44
[26]
  GI50: 11.1 µM
  Log10GI50: −4.95
[27]
  GI50: 39.7 µM
  Log10GI50: −4.40 M
[28]
  GI50: 35.1 µM
  Log10GI50: −4.45
[29]
  GI50: 12.1 µM
[30]
  GI50: 8.67 µM
  Log10GI50: −5.06 log10 M
[31]
  cells in G2/M phase: 14%
[32]
  cells in G2/M phase: 18%

## COc1cc(OC)cc(-c2cncn2-c2ccc(-c3nc4cc(OC)c(OC)c(OC)c4s3)cc2)c1 [Compound 7d, 2-(4-(5-(3,5-Dimethoxyphenyl)-1H-imidazol-1-yl)phenyl)-5,6,7-trimethoxybenzo[d]thiazole]
[1]
  Log10GI50: −5.61
  GI50: 2.43 µM
[2]
  GI50: 3.57 µM
  Log10GI50: −5.45
[3]
  GI50: 7.14 µM
[4]
  GI50: 9.56 µM
  Log10GI50: −5.02 log10(M)
[5]
  GI50: 86.5 µM
[6]
  GI50: 7.46 µM
[7]
  GI50: 3.76 µM
[8]
  GI50: 22.1 µM
  Log10GI50: −4.66
[9]
  GI50: 3.64 µM
  Log10GI50: −5.44
[10]
  GI50: 15 µM
  Log10GI50: −4.82
[11]
  GI50: 9.6 µM
[12]
  GI50: 6.07 µM
  Log10GI50: −5.22
[13]
  GI50: > 100 µM
[14]
  Log10GI50: −4.99 log10 M
  GI50: 10.3 µM
[15]
  Log10GI50: >−4.0
  GI50: > 100 µM
[16]
  GI50: 31.9 µM
  Log10GI50: −4.50
[17]
  GI50: 26.4 µM
[18]
  GI50: 1.94 µM
  Log10GI50: −5.71
[19]
  GI50: 30.2 µM
  Log10GI50: −4.52
[20]
  GI50: 3.17 µM
  Log10GI50: −5.50
[21]
  GI50: 4.02 µM
[22]
  GI50: 6.71 µM
[22]; present compounds
  Log10GI50: −4.68
[23]
  Log10GI50: −5.17
  GI50: 4.74 µM
[24]
  GI50: 10.7 µM
[25]
  GI50: 6.93 µM
  Log10GI50: −5.16
[26]
  GI50: 9.58 µM
  Log10GI50: −5.02
[27]
  GI50: 6.16 µM
  Log10GI50: −5.21 M
[28]
  GI50: 31.6 µM
  Log10GI50: −4.50
[29]
  GI50: 2.85 µM
[30]
  GI50: 13.8 µM
  Log10GI50: −4.86 log10 M
[31]
  cells in G2/M phase: 16%
[32]
  cells in G2/M phase: 24%

— US9187467B2, “2-phenyl benzothiazole linked imidazole compounds as potential anticancer agents and process for the preparation thereof” (Council of Scientific and Industrial Research, priority 2012, dated 2015)
